In patent publication US6747016B1, “Substituted purine derivatives as inhibitors of cell adhesion” (Aventis Pharma Deutschland GmbH, priority 1999, dated 2004):
pIC50: −log10 of the molar value.

Legend:
[1] = target: human vitronectin receptor αvβ3 (Homo sapiens, UniProt P05106+P06756); experiment: Kistrin binding assay (K/VnR, αvβ3 ELISA test); settings: inhibition of binding of kistrin to human vitronectin receptor
Text: The inhibition of the binding of kistrin to human vitronectin receptor (VnR) described below is a test method by which the antagonistic action of the compounds of the invention on the vitronectin receptor αvβ3 can be determined (αvβ3 ELISA Test; the test method is abbreviated as “K/VnR” in the listing of the test results).
Kistrin is purified according to the methods of Dennis et al., as described in Proc. Natl. Acad. Sci. USA 87 (1989) 2471 and Proteins: Structure, Function and Genetics 15 (1993) 312.
Purification of Human Vitronectin Receptor (αvβ3)
144 (1987) 475. Human vitronectin receptor αvβ3 can also be obtained from some cell lines (for example from 293 cells, a human embryonic kidney cell line) which are co-transfected with DNA sequences for both subunits αv and β3 of the vitronectin receptor. The subunits are extracted with octyl glycoside and then chromatographed through concanavalin A, heparin-Sepharose and S-300.
Murine monoclonal antibodies which are specific for the β3 subunits of the vitronectin receptor, are prepared according to the method of Newman et al., Blood, 1985, 227, or by a similar process. The rabbit Fab 2 anti-mouse Fc conjugate to horseradish peroxidase (anti-mouse Fc HRP) was obtained from Pel Freeze (Catalog No. 715 305-1).
The ability of substances to inhibit the binding of kistrin to the vitronectin receptor can be determined using an ELISA test. For this purpose, Nunc 96-well microtiter plates are coated with a solution of kistrin (0.002 mg/ml) according to the method of Dennis et al., as described in Proteins: Structure, Function and Genetics 15 (1993) 312. The plates are then washed twice with PBS/0.05% Tween-20 and blocked by incubating (60 min) with bovine serum albumin (BSA, 0.5%, RIA grade or better) in buffer solution (Tris-HCl (50 mM), NaCl (100 mM), MgCl2 (1 mM), CaCl2 (1 mM), MnCl2 (1 mM), pH 7). Solutions of known inhibitors and of the test substances are prepared in concentrations from 2×10^−12 to 2×10^−6 mol/l in assay buffer (BSA (0.5%, RIA grade or better); Tris-HCl (50 mM), NaCl (100 mM), MgCl2 (1 mM), CaCl2 (1 mM), MnCl2 (1 mM), pH 7). The blocked plates are emptied, and in each case 0.025 ml of this solution which contains a defined concentration (2×10^−12 to 2×10^−6 mol/l) either of a known inhibitor or of a test substance, are added to each well. 0.025 ml of a solution of the vitronectin receptor in assay buffer (0.03 mg/ml) is pipetted into each well of the plate and the plate is incubated at room temperature for 60-180 min on a shaker. In the meantime, a solution (6 ml/plate) of a murine monoclonal antibody specific for the β3 subunit of the vitronectin receptor is prepared in assay buffer (0.0015 mg/ml). A second rabbit antibody (0.001 ml of stock solution/6 ml of the murine monoclonal anti-β3 antibody solution) which is an anti-mouse Fc HRP antibody conjugate is added to this solution, and this mixture of murine anti-β3 antibody and rabbit anti-mouse Fc HRP antibody conjugate is incubated during the time of the receptor-inhibitor incubation. The test plates are washed four times with PBS solution which contains 0.05% Tween-20, and in each case 0.05 ml/well of the antibody mixture is pipetted into each well of the plate and incubated for 60-180 min. The plate is washed four times with PBS/0.05% Tween-20 and then developed with 0.05 ml/well of a PBS solution which contains 0.67 mg/ml of o-phenylenediamine and 0.012% of H2O2. Alternatively to this, o-phenylenediamine can be employed in a buffer (pH 5) which contains Na3PO4 and citric acid. The color development is stopped using 1 N H2SO4 (0.05 ml/well). The absorption for each well is measured at 492-405 nm and the data are evaluated by standard methods.

[2] = target: 293 cells cotransfected with αv and β3 subunits of the vitronectin receptor αvβ3, binding to human vitronectin (Homo sapiens, UniProt P05106+P06756); experiment: Vitronectin/293 cell test (Vn/293 cell test); assay type: cell-based; settings: inhibition of binding of 293 cells to human vitronectin
293 cells cotransfected with αv and β3 subunits of the vitronectin receptor αvβ3, binding to human vitronectin, sequence (P05106 whole entry): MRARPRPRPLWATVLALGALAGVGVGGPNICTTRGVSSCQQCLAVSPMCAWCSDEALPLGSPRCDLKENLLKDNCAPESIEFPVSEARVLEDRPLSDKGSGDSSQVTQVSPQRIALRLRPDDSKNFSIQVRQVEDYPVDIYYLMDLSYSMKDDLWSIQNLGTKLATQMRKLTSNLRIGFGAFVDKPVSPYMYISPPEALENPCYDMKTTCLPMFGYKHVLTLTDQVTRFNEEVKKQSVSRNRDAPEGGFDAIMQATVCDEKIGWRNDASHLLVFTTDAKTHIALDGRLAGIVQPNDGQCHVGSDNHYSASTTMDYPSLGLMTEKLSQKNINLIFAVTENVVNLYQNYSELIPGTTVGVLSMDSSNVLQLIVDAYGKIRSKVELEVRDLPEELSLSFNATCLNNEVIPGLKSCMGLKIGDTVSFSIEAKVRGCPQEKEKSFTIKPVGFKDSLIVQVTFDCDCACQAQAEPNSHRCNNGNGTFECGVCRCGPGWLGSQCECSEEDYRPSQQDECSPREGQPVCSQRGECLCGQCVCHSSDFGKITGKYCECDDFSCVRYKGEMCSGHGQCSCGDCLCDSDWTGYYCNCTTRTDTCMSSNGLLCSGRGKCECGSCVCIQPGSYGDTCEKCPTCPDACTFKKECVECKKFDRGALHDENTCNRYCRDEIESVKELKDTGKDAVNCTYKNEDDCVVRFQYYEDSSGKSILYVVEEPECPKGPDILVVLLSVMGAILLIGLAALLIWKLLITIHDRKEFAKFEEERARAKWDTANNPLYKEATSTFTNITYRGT
293 cells cotransfected with αv and β3 subunits of the vitronectin receptor αvβ3, binding to human vitronectin, sequence (P06756 whole entry): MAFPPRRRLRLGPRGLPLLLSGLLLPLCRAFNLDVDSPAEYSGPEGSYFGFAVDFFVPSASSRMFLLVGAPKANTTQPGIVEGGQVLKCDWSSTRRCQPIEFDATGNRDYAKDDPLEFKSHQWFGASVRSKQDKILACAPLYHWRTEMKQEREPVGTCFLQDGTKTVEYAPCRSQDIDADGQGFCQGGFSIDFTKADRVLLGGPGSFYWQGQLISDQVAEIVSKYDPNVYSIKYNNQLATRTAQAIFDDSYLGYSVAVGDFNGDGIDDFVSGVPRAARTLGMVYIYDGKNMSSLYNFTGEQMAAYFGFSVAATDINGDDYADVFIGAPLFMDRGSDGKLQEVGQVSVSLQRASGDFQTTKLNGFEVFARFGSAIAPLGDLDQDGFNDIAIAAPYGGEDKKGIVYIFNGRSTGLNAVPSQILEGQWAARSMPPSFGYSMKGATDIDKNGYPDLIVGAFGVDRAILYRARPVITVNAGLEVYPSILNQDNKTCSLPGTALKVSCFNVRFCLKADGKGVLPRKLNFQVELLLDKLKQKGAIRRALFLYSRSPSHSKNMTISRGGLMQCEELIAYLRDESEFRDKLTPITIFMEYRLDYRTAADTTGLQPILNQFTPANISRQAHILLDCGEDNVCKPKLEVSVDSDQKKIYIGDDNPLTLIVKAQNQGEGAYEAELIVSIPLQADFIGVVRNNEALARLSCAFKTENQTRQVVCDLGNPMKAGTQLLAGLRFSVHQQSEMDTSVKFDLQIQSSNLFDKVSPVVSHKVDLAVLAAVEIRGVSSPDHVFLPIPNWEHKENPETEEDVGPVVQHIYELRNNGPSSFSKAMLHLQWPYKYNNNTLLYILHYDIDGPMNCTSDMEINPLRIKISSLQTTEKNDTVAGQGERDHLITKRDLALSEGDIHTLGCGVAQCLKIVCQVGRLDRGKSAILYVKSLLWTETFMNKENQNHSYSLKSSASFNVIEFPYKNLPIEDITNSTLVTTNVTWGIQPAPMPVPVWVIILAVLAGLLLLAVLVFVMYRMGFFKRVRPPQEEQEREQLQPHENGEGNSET
Description: 2) Vitronectin/293 Cell Test
In this test the inhibition of binding of 293 cells to human vitronectin (Vn) by the compounds of the invention is determined (the test method is abbreviated as Vn/293 cell test in the listing of the test results).
Purification of Human Vitronectin
Human vitronectin was isolated from human plasma and purified by affinity chromatography according to the method of Yatohgo et al., Cell Structure and Function 23 (1988) 281.
293 cells, a human embryonic kidney cell line, which were cotransfected with DNA sequences for the αv and β3 subunits of the vitronectin receptor αvβ3, were selected for a high rate of expression (>500,000 αvβ3 receptors/cell) according to the FACS method. The selected cells were cultured and sorted again by means of FACS in order to obtain a stable cell line (15 D) with expression rates>1,000,000 copies of αvβ3 per cell.
A Linbro 96-well tissue culture plate with a flat bottom was coated overnight at 4° C. with human vitronectin (0.01 mg/ml, 0.05 ml/well) in phosphate-buffered saline solution (PBS) and then blocked with 0.5% strength BSA (bovine serum albumin). Solutions of the test substances from 10^−10 mol/l to 2×10^−3 mol/l in glucose-containing DMEM medium were prepared and 0.05 ml/well of the solution were added to the plate in each case. The cells which expressed high levels of αvβ3 (for example 15 D) were suspended in glucose-containing DMEM medium and the suspension was adjusted to a content of 25,000 cells/0.05 ml of medium. 0.05 ml of this cell suspension was added to each well and the plate was incubated at 37° C. for 90 min. The plate was washed 3 times with warm PBS in order to remove unbound cells. The bound cells were lyzed in citrate buffer (25 mM, pH 5.0) which contained 0.25% Triton X-100. The hexoseamidase substrate p-nitrophenyl-N-acetyl-β-D-glucosaminide was then added and the plate was incubated at 37° C. for 90 min. The reaction was stopped with a glycine (50 mM)/EDTA (5 mM) buffer (pH 10.4) and the absorption of each well was measured at 405 to 650 nm. The data were analyzed according to standard methods.

[3] = test system: bone resorption by osteoclasts; experiment: Pit Assay (osteoclast resorption test); assay type: cell-based; settings: inhibition of bone resorption
Text: The inhibition of bone resorption by the compounds of the invention can be determined, for example, with the aid of an osteoclast resorption test (“Pit Assay”), for example analogously to WO-A-95/32710 which is incorporated herein by reference.

human vitronectin receptor αvβ3, sequence (P06756 31-889 limits assumed): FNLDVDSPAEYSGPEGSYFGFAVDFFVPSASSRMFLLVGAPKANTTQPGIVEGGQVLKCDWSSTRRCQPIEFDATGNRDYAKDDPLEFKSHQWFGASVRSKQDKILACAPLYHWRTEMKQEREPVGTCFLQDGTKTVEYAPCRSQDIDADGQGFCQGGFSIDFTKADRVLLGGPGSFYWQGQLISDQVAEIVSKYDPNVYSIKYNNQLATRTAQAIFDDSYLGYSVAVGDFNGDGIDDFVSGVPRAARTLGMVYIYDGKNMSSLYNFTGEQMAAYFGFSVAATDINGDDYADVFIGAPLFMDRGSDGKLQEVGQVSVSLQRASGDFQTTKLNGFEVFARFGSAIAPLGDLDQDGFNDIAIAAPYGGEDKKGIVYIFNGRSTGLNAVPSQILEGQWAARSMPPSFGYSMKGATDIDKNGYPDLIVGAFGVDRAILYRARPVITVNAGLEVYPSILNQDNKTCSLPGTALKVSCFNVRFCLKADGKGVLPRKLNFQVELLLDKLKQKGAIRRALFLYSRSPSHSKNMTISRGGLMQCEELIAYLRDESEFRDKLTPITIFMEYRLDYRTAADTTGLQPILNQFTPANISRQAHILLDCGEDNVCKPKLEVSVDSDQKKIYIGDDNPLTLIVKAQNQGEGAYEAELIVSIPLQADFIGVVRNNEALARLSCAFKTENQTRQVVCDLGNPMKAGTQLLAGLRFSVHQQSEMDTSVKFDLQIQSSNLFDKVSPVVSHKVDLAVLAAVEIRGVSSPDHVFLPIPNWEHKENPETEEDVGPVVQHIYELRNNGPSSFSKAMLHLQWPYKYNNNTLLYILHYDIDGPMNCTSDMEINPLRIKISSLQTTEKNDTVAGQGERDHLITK
human vitronectin receptor αvβ3, sequence (P06756 891-1048 limits assumed): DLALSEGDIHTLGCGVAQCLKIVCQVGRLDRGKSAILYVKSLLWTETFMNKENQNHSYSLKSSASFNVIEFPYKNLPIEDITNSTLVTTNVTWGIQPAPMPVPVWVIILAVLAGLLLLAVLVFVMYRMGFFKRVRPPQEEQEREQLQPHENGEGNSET
human vitronectin receptor αvβ3, sequence (P05106 27-788): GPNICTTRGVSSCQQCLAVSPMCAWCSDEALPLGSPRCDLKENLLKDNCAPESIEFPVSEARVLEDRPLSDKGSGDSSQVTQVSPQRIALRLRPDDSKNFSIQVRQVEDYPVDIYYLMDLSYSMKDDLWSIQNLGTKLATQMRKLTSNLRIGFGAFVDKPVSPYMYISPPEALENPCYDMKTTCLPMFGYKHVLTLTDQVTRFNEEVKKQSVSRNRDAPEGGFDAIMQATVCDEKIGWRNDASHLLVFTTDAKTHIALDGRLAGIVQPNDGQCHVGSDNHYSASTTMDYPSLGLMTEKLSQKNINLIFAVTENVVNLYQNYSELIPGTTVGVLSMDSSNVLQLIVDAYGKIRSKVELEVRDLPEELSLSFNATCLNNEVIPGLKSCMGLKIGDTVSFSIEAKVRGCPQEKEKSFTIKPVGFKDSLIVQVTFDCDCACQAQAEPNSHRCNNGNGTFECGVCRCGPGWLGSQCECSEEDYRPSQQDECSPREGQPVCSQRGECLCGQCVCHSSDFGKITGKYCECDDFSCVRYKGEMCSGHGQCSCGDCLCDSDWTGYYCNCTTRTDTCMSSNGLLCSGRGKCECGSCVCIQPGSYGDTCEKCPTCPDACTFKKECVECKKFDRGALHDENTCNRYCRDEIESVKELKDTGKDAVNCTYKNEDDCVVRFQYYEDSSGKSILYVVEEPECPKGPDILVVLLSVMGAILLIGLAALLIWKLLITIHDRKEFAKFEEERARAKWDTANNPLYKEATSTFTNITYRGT

pIC50 [1]	pIC50 [2]	pIC50 [3]	SMILES
8.47	7.38		O=C(NC1=NCCCN1)C1CCN(c2ncnc3c2ncn3C[C@H](NS(=O)(=O)c2cccc(C(F)(F)F)c2)C(=O)O)CC1 [Example 6, (2S)-3-(6-(4-(1,4,5,6-Tetrahydropyrimidin-2-ylcarbamoyl)-piperidin-1-yl)-purin-9-yl)-2-(3-trifluoromethyl-benzenesulfonylamino)-propionic acid]
7.64	6.30		O=C(NC1=NCCCN1)C1CCN(c2ncnc3c2ncn3C[C@H](NS(=O)(=O)Cc2ccccc2)C(=O)O)CC1 [Example 7, (2S)-2-Phenylmethanesulfonylamino-3-(6-(4-(1,4,5,6-tetrahydropyrimidin-2-ylcarbamoyl)-piperidin-1-yl)-purin-9-yl)-propionic acid]
7.07			O=C(NC1=NCCCN1)C1CCN(c2ncnc3c2ncn3C[C@H](NS(=O)(=O)C(F)(F)F)C(=O)O)CC1 [Example 8, (2S)-3-(6-(4-(1,4,5,6-Tetrahydropyrimidin-2-ylcarbamoyl)-piperidin-1-yl)-purin-9-yl)-2-trifluoromethanesulfonylamino-propionic acid]
7.42	5.60		O=C(NC1=NCCCN1)C1CCN(c2ncnc3c2ncn3C[C@H](NS(=O)(=O)CC(F)(F)F)C(=O)O)CC1 [Example 9, (2S)-3-(6-(4-(1,4,5,6-Tetrahydropyrimidin-2-ylcarbamoyl)-piperidin-1-yl)-purin-9-yl)-2-(2,2,2-trifluoro-ethanesulfonylamino)-propionic acid]
8.38	5.95		CC(C)CS(=O)(=O)N[C@@H](Cn1cnc2c(N3CCC(C(=O)NC4=NCCCN4)CC3)ncnc21)C(=O)O [Example 10, (2S)-2-(2-Methylpropane-1-sulfonylamino)-3-(6-(4-(1,4,5,6-tetrahydropyrimidin-2-ylcarbamoyl)-piperidin-1-yl)-purin-9-yl)-propionic acid]
8.19	7.06		Cc1ccc(S(=O)(=O)N[C@@H](Cn2cnc3c(N4CCC(C(=O)NC5=NCCCN5)CC4)ncnc32)C(=O)O)cc1 [Example 11, (2S)-3-(6-(4-(1,4,5,6-Tetrahydropyrimidin-2-ylcarbamoyl)-piperidin-1-yl)-purin-9-yl)-2-(toluene-4-sulfonylamino)-propionic acid]
8.30	7.42	7.59	Cc1cc(C)c(S(=O)(=O)N[C@@H](Cn2cnc3c(N4CCC(C(=O)NC5=NCCCN5)CC4)ncnc32)C(=O)O)c(C)c1 [Example 12, (2S)-3-(6-(4-(1,4,5,6-Tetrahydropyrimidin-2-ylcarbamoyl)-piperidin-1-yl)-purin-9-yl)-2-(2,4,6-trimethyl-benzenesulfonylamino)-propionic acid]

The remaining lines, values behind:

SMILES	pIC50 [1]	pIC50 [2]	pIC50 [3]
O=C(NC1=NCCCN1)C1CCN(c2ncnc3c2ncn3C[C@H](NS(=O)(=O)c2cccc3ccccc23)C(=O)O)CC1 [Example 1, (2S)-2-(Naphthalene-1-sulfonylamino)-3-(6-(4-(1 ,4,5,6-tetrahydropyrimidin-2-ylcarbamoyl)-piperidin-1-yl)-purin-9-yl)-propionic acid]	8.72	7.52	9.10
O=C(NC1=NCCCN1)C1CCN(c2ncnc3c2ncn3C[C@H](NS(=O)(=O)c2ccc3ccccc3c2)C(=O)O)CC1 [Example 2, (2S)-2-(Naphthalene-2-sulfonylamino)-3-(6-(4-(1,4,5,6-tetrahydropyrimidin-2-ylcarbamoyl)-piperidin-1-yl)-purin-9-yl)-propionic acid]	8.60	8.05	8.64
CC(C)(C)c1ccc(S(=O)(=O)N[C@@H](Cn2cnc3c(N4CCC(C(=O)NC5=NCCCN5)CC4)ncnc32)C(=O)O)cc1 [Example 3, (2S)-2-(4-tert-Butyl-benzenesulfonylamino)-3-(6-(4-(1,4,5,6-tetrahydropyrimidin-2-ylcarbamoyl)-piperidin-1-yl)-purin-9-yl)-propionic acid]	8.35	7.17	
CCCS(=O)(=O)N[C@@H](Cn1cnc2c(N3CCC(C(=O)NC4=NCCCN4)CC3)ncnc21)C(=O)O [Example 4, (2S)-2-(Propane-1-sulfonylamino)-3-(6-(4-(1,4,5,6-tetrahydropyrimidin-2-ylcarbamoyl)-piperidin-1-yl)-purin-9-yl)-propionic acid]	7.60	5.85	
O=C(NC1=NCCCN1)C1CCN(c2ncnc3c2ncn3C[C@H](NS(=O)(=O)c2ccc(C(F)(F)F)cc2)C(=O)O)CC1 [Example 5, (2S)-3-(6-(4-(1,4,5,6-Tetrahydropyrimidin-2-ylcarbamoyl)-piperidin-1-yl)-purin-9-yl)-2-(4-trifluoromethyl-benzenesulfonylamino)-propionic acid]	8.49	7.55	7.82
